This is an account of results in patent US20260216170A1, “TETRAHYDROISOQUINOLINE HETEROBIFUNCTIONAL BCL-XL DEGRADERS” (Treeline Biosciences, Inc., priority 2023, published 2026).

Bounds are passed on as bounds.

The target in the experiment is T1, Human BCL-XL protein (N-terminal HiBiT tagged BCL-XL expressed in HT1080 cells) (Homo sapiens, UniProt Q07817).
T1 construct: expressed in transfected cells; host or cells: HT-1080 (ATCC CCL-121), stably transduced with lentivirus pLV-UBC-N-HiBiT-BCL-XL-PGK-puro and selected with puromycin
T1 sequence (Q07817 whole entry): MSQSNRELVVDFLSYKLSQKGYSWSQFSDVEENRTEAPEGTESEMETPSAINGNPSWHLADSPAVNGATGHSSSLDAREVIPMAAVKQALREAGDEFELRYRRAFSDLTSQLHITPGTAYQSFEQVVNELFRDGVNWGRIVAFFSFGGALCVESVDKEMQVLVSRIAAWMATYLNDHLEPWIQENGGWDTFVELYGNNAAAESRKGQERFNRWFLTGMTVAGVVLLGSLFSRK
Put plainly: HiBiT Based Degradation Assay. The experiment is classed as cell-based. Particulars: 24 hours incubation; for DC50: BCL-XL degradation, HT1080 cells expressing N-HiBiT-BCL-XL, normalized with DMSO control, geometric mean for multiple data points, read-out: EC50 (24 h); for Ymin (24 h): bottom of BCL-XL degradation curve (remaining HiBiT-BCL-XL signal vs DMSO control), HT1080 cells. The method in brief:
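BCL-XL degradation was read as Nano-Glo HiBiT lytic luminescence relative to DMSO after a 24 h compound treatment of HT1080 cells carrying stably integrated N-HiBiT-BCL-XL. EC50 values come from four-parameter logistic curves, with the hook-curve minimum fixed as bottom, and are geometric means where tested repeatedly.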

As for `Cn1nc(C2CCC(=O)NC2=O)c2ccc(NC(=O)CN3CCC4(CC3)CC(COc3cccc(-c5ccc(N6CCc7ccnc(C(=O)Nc8nc9ccccc9s8)c7C6)nc5C(=O)O)c3C(F)(F)F)C4)cc21` (stereo not shown) [Compound 161, 6-[8-(1,3-benzothiazol-2-ylcarbamoyl)-3,4-dihydro-1H-2,7-naphthyridin-2-yl]-3-[3-[[7-[2-[[3-(2,6-dioxo-3-piperidyl)-1-methyl-indazol-6-yl]amino]-2-oxo-ethyl]-7-azaspiro[3.5]nonan-2-yl]methoxy]-2-(trifluoromethyl)phenyl]pyridine-2-carboxylic acid], the DC50 was 0.01 to 0.1 µM and the “Ymin (24 h)” value is given as “B (30% ≤ Ymin < 50%)”.
In the case of `COc1c(NC(=O)CN2CCC3(CC2)CC(COc2cccc(-c4ccc(N5CCc6ccnc(C(=O)Nc7nc8ccccc8s7)c6C5)nc4C(=O)O)c2C(F)(F)F)C3)ccc2c(C3CCC(=O)NC3=O)nn(C)c12` (stereo not shown) [Compound 162, 6-[8-(1,3-benzothiazol-2-ylcarbamoyl)-3,4-dihydro-1H-2,7-naphthyridin-2-yl]-3-[3-[[7-[2-[[3-(2,6-dioxo-3-piperidyl)-7-methoxy-1-methyl-indazol-6-yl]amino]-2-oxo-ethyl]-7-azaspiro[3.5]nonan-2-yl]methoxy]-2-(trifluoromethyl)phenyl]pyridine-2-carboxylic acid], the DC50 lay within 0.01 to 0.1 µM and the “Ymin (24 h)” value is given as “B (30% ≤ Ymin < 50%)”.
Take `Cc1c(OC2CC3(CCN(CC(=O)Nc4ccc5c(C6CCC(=O)NC6=O)nn(C)c5c4)CC3)C2)cccc1-c1ccc(N2CCc3ccnc(C(=O)Nc4nc5ccccc5s4)c3C2)nc1C(=O)O` (stereo not shown) [Compound 163, 6-[8-(1,3-benzothiazol-2-ylcarbamoyl)-3,4-dihydro-1H-2,7-naphthyridin-2-yl]-3-[3-[[7-[2-[[3-(2,6-dioxo-3-piperidyl)-1-methyl-indazol-6-yl]amino]-2-oxo-ethyl]-7-azaspiro[3.5]nonan-2-yl]oxy]-2-methyl-phenyl]pyridine-2-carboxylic acid]: the DC50 is less than 0.01 µM and the “Ymin (24 h)” value is reported as “B (30% ≤ Ymin < 50%)”.
On to `COc1c(NC(=O)CN2CCC3(CC2)CC(Oc2cccc(-c4ccc(N5CCc6cccc(C(=O)Nc7nc8ccccc8s7)c6C5)nc4C(=O)O)c2C)C3)ccc2c(C3CCC(=O)NC3=O)nn(C)c12` (stereo not shown) [Compound 164, 6-(8-(benzo[d]thiazol-2-ylcarbamoyl)-3,4-dihydroisoquinolin-2(1H)-yl)-3-(3-((7-(2-((3-(2,6-dioxopiperidin-3-yl)-7-methoxy-1-methyl-1H-indazol-6-yl)amino)-2-oxoethyl)-7-azaspiro[3.5]nonan-2-yl)oxy)-2-methylphenyl)picolinic acid], for which the DC50 was 0.01 to 0.1 µM and the “Ymin (24 h)” value is recorded as “B (30% ≤ Ymin < 50%)”.
As to `COc1c(NC(=O)CN2CCC3(CC2)CC(Oc2cccc(-c4ccc(N5CCc6ccnc(C(=O)Nc7nc8ccccc8s7)c6C5)nc4C(=O)O)c2C(F)(F)F)C3)ccc2c(C3CCC(=O)NC3=O)nn(C)c12` (stereo not shown) [Compound 165, 6-(8-(benzo[d]thiazol-2-ylcarbamoyl)-3,4-dihydro-2,7-naphthyridin-2(1H)-yl)-3-(3-((7-(2-((3-(2,6-dioxopiperidin-3-yl)-7-methoxy-1-methyl-1H-indazol-6-yl)amino)-2-oxoethyl)-7-azaspiro[3.5]nonan-2-yl)oxy)-2-(trifluoromethyl)phenyl)picolinic acid], the DC50 is less than 0.01 µM and the “Ymin (24 h)” value is on record as “B (30% ≤ Ymin < 50%)”.
Regarding `COc1c(NC(=O)CN2CCC3(CC2)CC(Oc2cccc(-c4ccc(N5CCc6cccc(C(=O)Nc7nc8ccccc8s7)c6C5)nc4C(=O)O)c2C(F)(F)F)C3)ccc2c(C3CCC(=O)NC3=O)nn(C)c12` (stereo not shown) [Compound 166, 6-(8-(benzo[d]thiazol-2-ylcarbamoyl)-3,4-dihydroisoquinolin-2(1H)-yl)-3-(3-((7-(2-((3-(2,6-dioxopiperidin-3-yl)-7-methoxy-1-methyl-1H-indazol-6-yl)amino)-2-oxoethyl)-7-azaspiro[3.5]nonan-2-yl)oxy)-2-(trifluoromethyl)phenyl)picolinic acid], the DC50 lay in the range of 0.01 to 0.1 µM and the “Ymin (24 h)” value is on record as “B (30% ≤ Ymin < 50%)”.
Regarding `Cc1cc(OC2CC3(CCN(CC(=O)Nc4ccc5c(C6CCC(=O)NC6=O)nn(C)c5c4)CC3)C2)ccc1-c1ccc(N2CCc3ccnc(C(=O)Nc4nc5ccccc5s4)c3C2)nc1C(=O)O` (stereo not shown) [Compound 167, 6-[8-(1,3-benzothiazol-2-ylcarbamoyl)-3,4-dihydro-1H-2,7-naphthyridin-2-yl]-3-[4-[[7-[2-[[3-(2,6-dioxo-3-piperidyl)-1-methyl-indazol-6-yl]amino]-2-oxo-ethyl]-7-azaspiro[3.5]nonan-2-yl]oxy]-2-methyl-phenyl]pyridine-2-carboxylic acid], the DC50 is less than 0.01 µM and the “Ymin (24 h)” value is “A (Ymin < 30%)”.
As for `Cn1nc(C2CCC(=O)NC2=O)c2ccc(NC(=O)CN3CCC4(CC3)CC(Oc3ccc(-c5ccc(N6CCc7ccnc(C(=O)Nc8nc9ccccc9s8)c7C6)nc5C(=O)O)c(C(F)(F)F)c3)C4)cc21` (stereo not shown) [Compound 168, 6-[8-(1,3-benzothiazol-2-ylcarbamoyl)-3,4-dihydro-1H-2,7-naphthyridin-2-yl]-3-[4-[[7-[2-[[3-(2,6-dioxo-3-piperidyl)-1-methyl-indazol-6-yl]amino]-2-oxo-ethyl]-7-azaspiro[3.5]nonan-2-yl]oxy]-2-(trifluoromethyl)phenyl]pyridine-2-carboxylic acid], the DC50 was less than 0.01 µM and the “Ymin (24 h)” value was “B (30% ≤ Ymin < 50%)”.
In the case of `Cn1nc(C2CCC(=O)NC2=O)c2ccc(NC(=O)CN3CCC4(CC3)CC(Oc3cccc(-c5ccc(N6CCc7cccc(C(=O)Nc8nc9ccccc9s8)c7C6)nc5C(=O)O)c3C(F)(F)F)C4)cc21` (stereo not shown) [Compound 169, 6-(8-(benzo[d]thiazol-2-ylcarbamoyl)-3,4-dihydroisoquinolin-2(1H)-yl)-3-(3-((7-(2-((3-(2,6-dioxopiperidin-3-yl)-1-methyl-1H-indazol-6-yl)amino)-2-oxoethyl)-7-azaspiro[3.5]nonan-2-yl)oxy)-2-(trifluoromethyl)phenyl)picolinic acid], the DC50 was less than 0.01 µM and the “Ymin (24 h)” value is listed as “B (30% ≤ Ymin < 50%)”.
Taken in the same sequence, the figures for `COc1c(NC(=O)CN2CCC3(CC2)CC(Oc2ccc(-c4ccc(N5CCc6cccc(C(=O)Nc7nc8ccccc8s7)c6C5)nc4C(=O)O)c(C)c2)C3)ccc2c(C3CCC(=O)NC3=O)nn(C)c12` (stereo not shown) [Compound 170, 6-(8-(benzo[d]thiazol-2-ylcarbamoyl)-3,4-dihydroisoquinolin-2(1H)-yl)-3-(4-((7-(2-((3-(2,6-dioxopiperidin-3-yl)-7-methoxy-1-methyl-1H-indazol-6-yl)amino)-2-oxoethyl)-7-azaspiro[3.5]nonan-2-yl)oxy)-2-methylphenyl)picolinic acid] were less than 0.01 µM and “A (Ymin < 30%)”.
For `COc1c(NC(=O)CN2CCC3(CC2)CC(Oc2ccc(-c4ccc(N5CCc6ccnc(C(=O)Nc7nc8ccccc8s7)c6C5)nc4C(=O)O)c(C(F)(F)F)c2)C3)ccc2c(C3CCC(=O)NC3=O)nn(C)c12` (stereo not shown) [Compound 171, 6-(8-(benzo[d]thiazol-2-ylcarbamoyl)-3,4-dihydro-2,7-naphthyridin-2(1H)-yl)-3-(4-((7-(2-((3-(2,6-dioxopiperidin-3-yl)-7-methoxy-1-methyl-1H-indazol-6-yl)amino)-2-oxoethyl)-7-azaspiro[3.5]nonan-2-yl)oxy)-2-(trifluoromethyl)phenyl)picolinic acid], the DC50 is 0.01 to 0.1 µM and the “Ymin (24 h)” value is listed as “B (30% ≤ Ymin < 50%)”.
Taken in the same sequence, the figures for `COc1c(NC(=O)CN2CCC3(CC2)CC(Oc2ccc(-c4ccc(N5CCc6cccc(C(=O)Nc7nc8ccccc8s7)c6C5)nc4C(=O)O)c(C(F)(F)F)c2)C3)ccc2c(C3CCC(=O)NC3=O)nn(C)c12` (stereo not shown) [Compound 172, 6-(8-(benzo[d]thiazol-2-ylcarbamoyl)-3,4-dihydroisoquinolin-2(1H)-yl)-3-(4-((7-(2-((3-(2,6-dioxopiperidin-3-yl)-7-methoxy-1-methyl-1H-indazol-6-yl)amino)-2-oxoethyl)-7-azaspiro[3.5]nonan-2-yl)oxy)-2-(trifluoromethyl)phenyl)picolinic acid] were 0.01 to 0.1 µM and “B (30% ≤ Ymin < 50%)”.
Consider `Cc1c(OCC[C@@H]2C[C@@H]3CN(CC(=O)Nc4ccc5c(C6CCC(=O)NC6=O)nn(C)c5c4)C[C@@H]3C2)cccc1-c1ccc(N2CCc3cccc(C(=O)Nc4nc5ccccc5s4)c3C2)nc1C(=O)O` (stereo partly shown) [Compound 173a], for which the DC50 was less than 0.01 µM and the “Ymin (24 h)” value is “B (30% ≤ Ymin < 50%)”.
Regarding `Cc1c(OCC[C@@H]2C[C@H]3CC[C@@H](C2)N3CC(=O)Nc2ccc3c(C4CCC(=O)NC4=O)nn(C)c3c2)cccc1-c1ccc(N2CCc3cccc(C(=O)Nc4nc5ccccc5s4)c3C2)nc1C(=O)O` (stereo partly shown) [Compound 174a], the DC50 is less than 0.01 µM and the “Ymin (24 h)” value is given as “A (Ymin < 30%)”.
Consider `Cc1c(OCCC[C@@H]2C[C@H]3CC[C@@H](C2)N3CC(=O)Nc2ccc3c(C4CCC(=O)NC4=O)nn(C)c3c2)cccc1-c1ccc(N2CCc3cccc(C(=O)Nc4nc5ccccc5s4)c3C2)nc1C(=O)O` (stereo partly shown) [Compound 175a], for which the DC50 was less than 0.01 µM and the “Ymin (24 h)” value was “B (30% ≤ Ymin < 50%)”.
Consider `Cc1c(OCCC[C@H]2[C@@H]3C[C@H]2CN(CC(=O)Nc2ccc4c(C5CCC(=O)NC5=O)nn(C)c4c2)C3)cccc1-c1ccc(N2CCc3cccc(C(=O)Nc4nc5ccccc5s4)c3C2)nc1C(=O)O` (stereo partly shown) [Compound 176a], for which the DC50 was in the range of 0.01 to 0.1 µM and the “Ymin (24 h)” value is listed as “C (50% ≤ Ymin < 70%)”.
Regarding `Cc1c(OCCN2CCCC23CCN(CC(=O)Nc2ccc4c(C5CCC(=O)NC5=O)nn(C)c4c2)CC3)cccc1-c1ccc(N2CCc3cccc(C(=O)Nc4nc5ccccc5s4)c3C2)nc1C(=O)O` (stereo not shown) [Compound 177], the DC50 is less than 0.01 µM and the “Ymin (24 h)” value is “B (30% ≤ Ymin < 50%)”.
